Like-named read-outs stand apart in the source and are kept apart here. Marks after values point to notes of the source that are not given here. Where a SMILES comes first, the peptide text is derived from it. Bridges are numbered along the chain shown (N, C = ends). [ ]: non-standard residue; d: D form. Aad = N[C@@H](CCCC(=O)O)C(=O)O; Dab = NCC[C@H](N)C(=O)O; Mpa = O=C(O)CCS
How the values were obtained:
[1] = Therapeutic index (NOAEL/NOEL): paleness, lethargy, ataxia observation in Sprague-Dawley rats (Example 7); assay type: in vivo; conditions: for Paleness (Duration, hrs; SD) / Highest dose with no-observed effect level or paleness (NOEL) / NOAEL/NOEL (therapeutic index) / NOAEL at 24 h / NOAEL: S.C.; for Highest dose with no-observed effect level or paleness (NOEL) / NOAEL/NOEL (therapeutic index) / NOAEL at 24 h / Marked adverse effect (Lowest dose first showed Ataxia) / Mild adverse effect (Lowest dose first showed Lethargy) / NOAEL: rat; for NOAEL at 24 h: male, Sprague-Dawley; for NOAEL at 24 h / Marked adverse effect (Lowest dose first showed Ataxia) / Mild adverse effect (Lowest dose first showed Lethargy) / NOAEL: in vivo, sc; for NOAEL at 24 h / NOAEL: read-out: Highest dose with no-observed adverse effect level without lethargy (NOAEL)
Text: As used herein, the term “therapeutic index” (TI; also referred to as therapeutic ratio) is a quantitative measure of the relative safety of a drug. […] For the purpose of the present application, lethargy is a lack of energy and/or sleepiness which is visually observed in rats as a lack of mobility, such as a lack of mobility even in the presence of human activity. For the purpose of present specification, peripheral vasoconstriction is visually observed by a paleness of the extremities (e.g., skin of hands, feet, ears, and lips). In rats, peripheral vasoconstriction is determined by a side-by-side comparison of ear paleness in treated subjects (e.g., Sprague Dawley rats, a white rat with easily visualizable changes in redness/paleness) vs. untreated control subjects. The V1a agonist (or partial agonist) with a high therapeutic index will have a better safety profile than that with a low therapeutic index by providing a wider margin of safety for dosing during the treatment of the disease. This NOAEL/NOEL ratio, being a quantitative measure of the relative safety, is a comparison of the amount of a therapeutic agent that causes the therapeutic effect (useful effect, vasoconstriction for the purpose of the present specification) to the amount that causes toxicity. A V1a agonist that causes severe vasoconstriction will affect not only the peripheral vessels, with several layer of smooth muscles, but also other vessels present in other organs (e.g., heart, lungs, kidney, brain) and this will result in observed lethargy and eventually ataxia. A partial agonist is less likely to reach such an extreme level of vasoconstriction and is believed to have a higher therapeutic index.
In this study, 8 to 10 weeks male Sprague-Dawley rats (Charles River; Wilmington, MA) under isoflurane anesthesia (n=3 or 6) were intravenously (IV) or subcutaneously (SC) injected or administered with various test articles. Prior to administration of test articles, the injection area was clipped free of fur, to allow for clear visualization of the dose site, and animal weight was measured and recorded. Animals were housed two per cage. […] Lethargy is when the animal eyes cannot fully open and is associated deep breathing and limited of movement even in the presence of human.

V1a receptor = biological target: T1, V1a receptor (Homo sapiens, UniProt P37288); test: V1a Human Vasopressin GPCR Cell Based Agonist Calcium Flux Assay; conditions: for Emax: read-out: V1a Highest agonist effect (% of AVP)
T1 construct: host or cells: CHO cells
T1 sequence (P37288 whole entry): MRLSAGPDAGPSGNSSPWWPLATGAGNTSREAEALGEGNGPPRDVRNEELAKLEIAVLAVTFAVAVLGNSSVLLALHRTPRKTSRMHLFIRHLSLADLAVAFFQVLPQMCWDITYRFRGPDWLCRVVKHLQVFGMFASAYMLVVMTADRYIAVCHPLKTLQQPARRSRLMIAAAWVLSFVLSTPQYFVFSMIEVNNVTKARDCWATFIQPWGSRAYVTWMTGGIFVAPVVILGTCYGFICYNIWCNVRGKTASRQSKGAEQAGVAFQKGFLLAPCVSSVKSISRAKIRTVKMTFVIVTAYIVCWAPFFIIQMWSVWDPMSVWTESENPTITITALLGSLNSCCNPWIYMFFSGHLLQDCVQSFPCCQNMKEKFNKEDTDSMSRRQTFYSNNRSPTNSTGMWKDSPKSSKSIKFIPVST
Experimental: Peptides of Formula (I) include Mpa-Tyr-Phe-Hgn-Asn-Cys-Pro-Lys(X)a-Gly-NH2 [SEQ ID NO. 24]; where (X)a is a peptide with “a” residues and each residue X is independently selected from Gly, and a D- or L-amino acid version of Ala, Lys, Orn, Glu, and Asp, where “a” is 0-10. V1a Human Vasopressin GPCR Cell Based Agonist Calcium Flux Assay were conducted at Eurofins Cerep SA (France) on a fee for service basis. Human recombinant CHO cells expressing human V1 receptors were distributed in microplates. Intracellular calcium signal was detected by fluorimetry, and the signal was acquired before and after addition of a known agonist concentration. The following agonist concentrations were tested (nM); 0.0128, 0.064, 0.32, 1.6, 8, 40, 200, and 1,000. […] All assays were performed in duplicate. Changes in fluorescence intensity reflected changes in the concentration of free cytosolic calcium. […] The half-maximal effective concentration (EC50) was determined by a non-linear regression analysis of the concentration-response curves generated with mean replicate values using Hill equation curve fitting (Cerep, I'Evescault, France).
V1a Human Vasopressin GPCR Cell Based Agonist Calcium Flux Assay were conducted using human recombinant CHO cells expressing human V1 receptor. Briefly, human recombinant CHO cells expressing human V1 receptor were distributed in microplates at 4.5×10^4 cells/well. The fluorescent probe (Fluo4 Direct, Invitrogen) mixed with probenicid in HBSS buffer (Invitrogen) complemented with 20 mM HEPES (Invitrogen) (pH 7.4) is then added into each well and equilibrated with the cells for 60 min at 37° C. then 15 min at 22° C. Thereafter, the assay plates are positioned in a microplate reader (CellLux, PerkinElmer) which is used for the addition of the test compound, reference agonist or HBSS buffer (basal control), and the measurements of changes in fluorescence intensity which varies proportionally to the free cytosolic Ca^2+ ion concentration. The following agonist concentrations were tested (nM), 0.0128, 0.064, 0.32, 1.6, 8, 40, 200, and 1,000. […] All assays were performed in duplicate. Changes in fluorescence intensity reflected changes in the concentration of free cytosolic calcium. […] Referring to FIG. 3 and Table 4, the half-maximal effective concentration (EC50) was determined by non-linear regression analysis of the concentration-response curves generated with mean replicate values using Hill equation curve fitting (Cerep, I'Evescault, France).

[2] = at the Marked adverse effect dose
[3] = at the Mild adverse effect dose
[4] = Table 3, CHO cells expressing human V1 receptor, read-out: Estimated V1a EC50 (nM), n = 2

SMILES | Paleness (Duration, hrs; SD) [1, 2] | Paleness (Duration, hrs; SD) [1, 3] | Paleness (Duration, hrs; SD) ([1]; at the NOAEL dose) | Paleness (Duration, hrs; SD) ([1]; at the NOEL dose) | Highest dose with no-observed effect level or paleness (NOEL) [1] | NOAEL/NOEL (therapeutic index) [1] | NOAEL at 24 h [1] | Marked adverse effect (Lowest dose first showed Ataxia) [1] | Mild adverse effect (Lowest dose first showed Lethargy) [1] | EC50 (V1a receptor; [4]) | Emax (V1a receptor; Table 3, n = 2) | EC50 (V1a receptor; FIG. 2 / FIG. 3 legend, n=2, read-out: EC50 for V1a receptor) | EC50 (V1a receptor; Table 3, cells printed in μM, read-out: Estimated V1a EC50, n = 2) | NOAEL [1]
NCC(=O)NCCCC[C@H](NC(=O)[C@@H]1CCCN1C(=O)[C@@H]1CSSCCC(=O)N[C@@H](Cc2ccc(O)cc2)C(=O)N[C@@H](Cc2ccccc2)C(=O)N[C@@H](CCCC(N)=O)C(=O)N[C@@H](CC(N)=O)C(=O)N1)C(=O)NCC(N)=O [SEQ ID NO. 8, Mpa-Tyr-Phe-Hgn-Asn-Cys-Pro-Lys(X)-Gly-NH2; X = Gly] | (>6.12)* hrs | (>6.12)* hrs | (6.20 ± 0.28) hrs | None Observed | 0.0015 mg/kg | 10 | 0.15 mg/kg | 1.5 mg/kg | 0.5 mg/kg | 25.3 nM | 40.3% | – | – | –
NCC(=O)NCC(=O)NCCCC[C@H](NC(=O)[C@@H]1CCCN1C(=O)[C@@H]1CSSCCC(=O)N[C@@H](Cc2ccc(O)cc2)C(=O)N[C@@H](Cc2ccccc2)C(=O)N[C@@H](CCCC(N)=O)C(=O)N[C@@H](CC(N)=O)C(=O)N1)C(=O)NCC(N)=O [SEQ ID NO. 9, Mpa-Tyr-Phe-Hgn-Asn-Cys-Pro-Lys(X)a-Gly-NH2; (X)a = (Gly)2] | (>5.99)* hrs | (>6.04)* hrs | (5.74 ± 0.45) hrs | None Observed | 0.0015 mg/kg | 100 | 0.15 mg/kg | 1.5 mg/kg | 0.5 mg/kg | 38.2 nM | 37% | – | – | –
NCC(=O)NCC(=O)NCC(=O)NCCCC[C@H](NC(=O)[C@@H]1CCCN1C(=O)[C@@H]1CSSCCC(=O)N[C@@H](Cc2ccc(O)cc2)C(=O)N[C@@H](Cc2ccccc2)C(=O)N[C@@H](CCCC(N)=O)C(=O)N[C@@H](CC(N)=O)C(=O)N1)C(=O)NCC(N)=O [SEQ ID NO. 10, Mpa-Tyr-Phe-Hgn-Asn-Cys-Pro-Lys(X)a-Gly-NH2; (X)a = (Gly)3] | (6.4 ± 0.07) hrs | (6.27 ± 0.13) hrs | (5.65 ± 0.4) hrs | None observed | 0.0015 mg/kg | 100 | 0.15 mg/kg | 1.5 mg/kg | 0.5 mg/kg | – | 32.9% | 53.5 nM | – | –
NCC(=O)NCC(=O)NCC(=O)NCC(=O)NCCCC[C@H](NC(=O)[C@@H]1CCCN1C(=O)[C@@H]1CSSCCC(=O)N[C@@H](Cc2ccc(O)cc2)C(=O)N[C@@H](Cc2ccccc2)C(=O)N[C@@H](CCCC(N)=O)C(=O)N[C@@H](CC(N)=O)C(=O)N1)C(=O)NCC(N)=O [SEQ ID NO. 11, Mpa-Tyr-Phe-Hgn-Asn-Cys-Pro-Lys(X)a-Gly-NH2; (X)a = (Gly)4] | (>6.93)* hrs | (>6.85)* hrs | (6.02 ± 0.06) hrs | None Observed | 0.0015 mg/kg | 100 | 0.15 mg/kg | 1.5 mg/kg | 0.5 mg/kg | 161 nM | 33.6% | – | – | –
CC(=O)NCC(=O)NCC(=O)NCC(=O)NCC(=O)NCC(=O)NCC(=O)NCC(=O)NCC(=O)NCC(=O)NCCCC[C@H](NC(=O)[C@@H]1CCCN1C(=O)[C@@H]1CSSCCC(=O)N[C@@H](Cc2ccc(O)cc2)C(=O)N[C@@H](Cc2ccccc2)C(=O)N[C@@H](CCCC(N)=O)C(=O)N[C@@H](CC(N)=O)C(=O)N1)C(=O)NCC(N)=O [SEQ ID NO. 26, Mpa-Tyr-Phe-Hgn-Asn-Cys-Pro-Lys(X)a-Gly-NH2; (X)a = (Gly)9-Ac] | – | – | – | – | – | – | – | – | – | – | 40% | – | > 10000 nM | –
NC[C@H](N)C(=O)NCCCC[C@H](NC(=O)[C@@H]1CCCN1C(=O)[C@@H]1CSSCCC(=O)N[C@@H](Cc2ccc(O)cc2)C(=O)N[C@@H](Cc2ccccc2)C(=O)N[C@@H](CCCC(N)=O)C(=O)N[C@@H](CC(N)=O)C(=O)N1)C(=O)NCC(N)=O [SEQ ID NO. 29, Mpa-Tyr-Phe-Hgn-Asn-Cys-Pro-Lys(X)a-Gly-NH2; (X)a = Dap] | – | – | – | – | – | – | – | – | – | – | 7.5% | – | – | –
NCCC[C@H](NC(=O)[C@@H]1CCCN1C(=O)[C@@H]1CSSCCC(=O)N[C@@H](Cc2ccc(O)cc2)C(=O)N[C@@H](Cc2ccccc2)C(=O)N[C@@H](CCCC(N)=O)C(=O)N[C@@H](CC(N)=O)C(=O)N1)C(=O)NCC(N)=O [SEQ ID NO. 30, Mpa-Tyr-Phe-Hgn-Asn-Cys-Pro-Orn-Gly-NH2] | – | – | – | – | 0.0005 mg/kg | – | – | 0.044 mg/kg | 0.015 mg/kg | – | – | – | – | 0.005 mg/kg
NCC[C@H](NC(=O)[C@@H]1CCCN1C(=O)[C@@H]1CSSCCC(=O)N[C@@H](Cc2ccc(O)cc2)C(=O)N[C@@H](Cc2ccccc2)C(=O)N[C@@H](CCCC(N)=O)C(=O)N[C@@H](CC(N)=O)C(=O)N1)C(=O)NCC(N)=O [SEQ ID NO. 31, Mpa-Tyr-Phe-Hgn-Asn-Cys-Pro-Dab-Gly-NH2] ([Mpa]YF[Aad](NH2)NCP[Dab]G-NH2; disulfide 1-6) | – | – | – | – | 0.0005 mg/kg | – | – | 0.045 mg/kg | 0.015 mg/kg | – | – | – | – | 0.005 mg/kg

Source: US12410211B2, “V1A receptor partial agonist and method of use” (PharmaIN Corporation, priority 2020, dated 2025)
